Experimental data reported in ChEMBL document CHEMBL1158241, “Inhibition of hepatitis B surface antigen secretion on human hepatoma cells. Components from Rubia cordifolia” (J Nat Prod, 1996).
In brackets after ≈: the same amount, converted by molar mass. Activity calls are given as the source filed them. The calls are words filed in the database; no cut-off is given here.

Columns and labels:
[1] = tested on: Hepatitis B virus; assay: Antiviral activity against Hepatitis B virus infected in human Hep3B cells assessed as suppression of viral surface antigen secretion after 48 hrs by enzyme immunoassay; type: functional, organism-based, Hep 3B2
[2] = Cytotoxicity against human Hep3B cells by MTT assay; type: cell-based, Hep 3B2
[3] = Cytotoxicity against human Hep3B cells at >20 […] by MTT assay; type: cell-based; details: hep 3b2
[4] = tested on: Hepatitis B virus; assay: Antiviral activity against Hepatitis B virus infected in human Hep3B cells assessed as suppression of viral surface antigen secretion at >5 […] after 48 hrs by enzyme immunoassay; type: functional, organism-based; details: Hep 3B2

| Structure (SMILES) | IC50 [1] [µg/mL] | CC50 [2] [µg/mL] | Activity [3] | Activity [4] |
| --- | --- | --- | --- | --- |
| COC(=O)c1c(OC)c2ccccc2c2oc(=O)ccc12 [METHYLRUBILACTONE] | – | 12.5 (≈ 44 µM) | – | inactive |
| COC(=O)c1c(O)c2ccccc2c2oc(=O)ccc12 [RUBILACTONE] | – | 4 (≈ 14.8 µM) | – | inactive |
| COC(=O)c1c(OC)c2ccccc2c2occc12 [METHYLFUROMOLLUGIN] | – | – | Not Active | inactive |
| COC(=O)c1c2c(c3ccccc3c1OC)OC(C)(C)CC2 [DIHYDROMOLLUGIN METHYL ETHER] | – | 7 (≈ 23.3 µM) | – | inactive |
| COC(=O)c1c2c(c3ccccc3c1OC)OC(C)(C)C=C2 [MOLLUGIN METHYL ETHER] | – | – | Not Active | inactive |
| COC(=O)c1c(O)c2ccccc2c2occc12 [FUROMOLLUGIN] | 2 (≈ 8.26 µM) | 11.5 (≈ 47.5 µM) | – | – |

Second part, led by results:

| IC50 [1] [µg/mL] | Structure (SMILES) | CC50 [2] [µg/mL] | Activity [3] | Activity [4] |
| --- | --- | --- | --- | --- |
| 2 (≈ 6.99 µM) | COC(=O)c1c2c(c3ccccc3c1O)OC(C)(C)CC2 [DIHYDROMOLLUGIN] | 8.2 (≈ 28.6 µM) | – | – |
| 1 (≈ 2.67 µM) | COC(=O)c1c2c(c3ccccc3c1OCc1ccccc1)OC(C)(C)C=C2 | – | Not Active | – |
| 2 (≈ 7.03 µM) | COC(=O)c1c2c(c3ccccc3c1O)OC(C)(C)C=C2 [MOLLUGIN] | – | Not Active | – |
| 4.5 (≈ 15.8 µM) | COc1c(C(=O)O)c2c(c3ccccc13)OC(C)(C)C=C2 | – | Not Active | – |
| 2 (≈ 6.13 µM) | COC(=O)c1c2c(c3ccccc3c1OC(C)=O)OC(C)(C)C=C2 [ACETYLMOLLUGIN] | 10 (≈ 30.6 µM) | – | – |
| 0.8 (≈ 2.26 µM) | COc1c(C(=O)OCCC(C)C)c2c(c3ccccc13)OC(C)(C)C=C2 | 10 (≈ 28.2 µM) | – | – |
